Measured values published in patent publication US9999218B2, “Pest control formulations and methods of making and using same” (0903608 B.C. Ltd., priority 2011, dated 2018).
Where two headings read alike, the source gives them in different places.

How the values were obtained:
adult bed bugs [1] = format: in vivo
bed bug eggs [2] = format: in vivo, Cimex lectularius L.
Text: Immediately after infestation, and at 1-, 2-, and 3-week intervals thereafter, the numbers of hatched and unhatched eggs present in the sealed dishes were counted and compared to other Treated Groups. One egg was counted as “hatched” for every new nymph present in the petri dish when compared with the prior interval. Table 13 compares the % egg eclosion of the treated groups at the 3-week observation interval. The maximum mortality data obtained in Example 3, above, are included for comparison purposes.

adult bed bugs [3] = settings: […] neem oil + […] named solvent in isopropanol, 4 h dried in highly-ventilated room; for Max. Mortality: observed until 14 days
Procedure: This example illustrates the dry residual pesticidal activity of formulations including neem oil and various organic solvents including alcohols, ketones, esters and carboxylic acids. […] The percent by weight of each solvent was varied to ensure a consistent molar quantity of solvent in each solution. Treated Groups for each solution were prepared by treating filter paper, 90 mm in diameter, with 1.0 mL of solution and allowing it to air dry for four hours in a highly-ventilated room. A known number of adults were added to each treated dish, four hours after treatment. Bed bug mortality was assessed immediately after infestation and at 1-hour, 2-hour, 4-hour, 6-hour, 8-hour, 10-hour, 12-hour, and 24-hour intervals, and at 24-hour intervals thereafter until 14 days after infestation. Adult bed bugs were counted dead if they were unresponsive when stimulated.

bed bug eggs [4] = assay: Prevention of egg emergence by various pesticidal natural oils (Example 11); format: in vivo, Cimex lectularius L.; settings: […] by weight oil with 5.0% acetophenone; all observation intervals
Procedure: Five bed bug eggs were added to each treated dish, two hours after treatment. Immediately after infestation, and at 1-, 2-, and 3-week intervals thereafter, the numbers of hatched and unhatched eggs present in the sealed dishes were counted and compared to other Treated Groups. One egg was counted as “hatched” for every new nymph present in the petri dish when compared with the prior interval. Table 12 compares the mean % egg eclosion of the treated groups at three weeks post-infestation. The maximum mortality data obtained in Example 2, above, are included for each formulation, for comparison purposes.

adult bed bugs [5] = settings: in vivo
Procedure: This example illustrates the dry residual pesticidal activity of formulations comprising further pesticidal natural oils (thyme, garlic and neem oils) with acetophenone as the polar aromatic solvent. Solutions were prepared using 5.5% by weight natural oil; the percentage by weight of organic solvent indicated in Table 20 and an appropriate amount of isopropanol as a carrier diluent. Solvent was added to a final concentration of 1.5 mol/kg. Solutions were also prepared of each natural oil alone (5.5% by weight with an appropriate amount of isopropanol as a carrier diluent), and of the polar organic solvent alone (the percent by weight indicated in Table 20 with an appropriate amount of isopropanol as a carrier diluent). Treated Groups for each solution were prepared by treating filter paper, 90 mm in diameter, with 1.0 mL of solution and allowing it to air dry for four hours. A known number of adults (usually 10) were added to each treated dish, four hours after treatment. Bed bug mortality was assessed immediately after infestation and at 1-hour, 2-hour, 4-hour, 6-hour, 8-hour, 10 hour, 12-hour, and 24-hour intervals, and at 24-hour intervals thereafter until 14 days after infestation. Adult bed bugs were counted dead if they were unresponsive when stimulated.

[6] = […] neem oil + […] named solvent in isopropanol, 4 h dried residue
[7] = […] neem oil + […] named solvent in isopropanol, 4 h dried residue, observed until 14 days
[8] = […] neem oil + named solvent in isopropanol, 4 h dried residue, 3 weeks after infestation

| Compound | Time to Max Mortality (adult bed bugs [1]; [6]) | Max. Mortality (adult bed bugs [1]; [7]) | % Eclosion (bed bug eggs [2]; [8]) | Time to Max Mortality (adult bed bugs [3]) | Max. Mortality (adult bed bugs [3]) | other results |
| --- | --- | --- | --- | --- | --- | --- |
| CC(O)c1ccccc1 (stereo not shown) [1-Phenylethanol] | 24 h | 100% | 0% |  |  |  |
| O=C(c1ccc(O)cc1O)c1ccc(O)cc1O [2,2′-4,4′ Tetrahydroxybenzophenone] | 24 h | 100% | 0% |  |  |  |
| CC(C)CC(O)CC(C)C [2,6-Dimethyl-4-heptanol] |  |  |  | 14 days | 20% |  |
| CCCCCCC(CO)CCCC (stereo not shown) [2-Butyl-1-octanol] |  |  |  | 8 days | 100% |  |
| CCCCC(CC)CO (stereo not shown) [2-Ethyl-1-hexanol] |  |  | 0% |  |  | Max. Mortality (adult bed bugs [1]; in vivo): 100%; Time to Max Mortality (adult bed bugs [1]; in vivo): 72 h |
| CC(C)(O)c1ccccc1 [2-Phenyl-2-propanol] |  |  |  | 1 days | 100% |  |
| CC(C)O [2-Propanol (IPA), 2-Propanol] | 140 h | 40% |  |  |  |  |
| CCCCCCCCC(CO)CCCCCC (stereo not shown) [2-hexyl-1-decanol] |  |  |  | 14 days | 100% |  |
| Cc1ccc(O)c(C=O)c1 [2-hydroxy-5-methyl benzaldehyde] |  |  |  | 1 days | 100% |  |
| CC(=O)OC1CCCCC1C(C)(C)C (stereo not shown) [2-tert-Butylcyclohexylacetate] | 96 h | 100% | 20% |  |  |  |
| CC(=O)c1ccc(C)cc1C [2′,4′-Dimethylacetophenone] | 24 h | 100% | 0% |  |  |  |
| CC(=O)c1ccccc1O [2′-Hydroxyacetophenone] |  |  |  | 1 days | 100% |  |
| Cc1ccc(CO)cc1C [3,4-dimethylbenzyl alcohol] |  |  |  | 14 days | 100% |  |
| CC(=O)c1ccc(C)c(C)c1 [3′,4′-Dimethylacetophenone] | 48 h | 100% | 0% |  |  |  |
| O=C(O)c1ccc(O)cc1 [4-Hydroxy benzoic acid] |  |  |  | 1 days | 100% |  |
| Cc1cc(C(=O)O)ccc1O [4-Hydroxy-3-methyl benzoic acid] |  |  |  | 14 days | 60% |  |
| CC(=O)c1ccc(O)cc1 [4′-Hydroxyacetophenone] |  |  |  | 9 days | 50% |  |
| CCCCC(=O)c1ccc(O)cc1 [4′-Hydroxyvalerophenone] |  |  |  | 14 days | 70% |  |
| CC(=O)c1ccc(C)cc1 [4′-Methylacetophenone] | 48 h | 100% | 0% |  |  |  |
| CCC(=O)c1ccc(C)cc1 [4′-Methylpropiophenone] | 24 h | 100% | 0% |  |  |  |

| Compound | Time to Max Mortality (adult bed bugs [1]; [6]) | Max. Mortality (adult bed bugs [1]; [7]) | % Eclosion (bed bug eggs [2]; [8]) | Time to Max Mortality (adult bed bugs [3]) | Max. Mortality (adult bed bugs [3]) | other results |
| --- | --- | --- | --- | --- | --- | --- |
| Cc1ccc(C(C)O)cc1 (stereo not drawn) [Alpha-4-dimethylbenzyl alcohol] |  |  |  | 1 days | 100% |  |
| O=Cc1ccccc1 [Benzaldehyde] | 336 h | 100% | 0% |  |  |  |
| c1ccccc1 [Benzene] |  |  |  | 14 days | 40% |  |
| O=C(O)c1ccccc1 [Benzoic acid] |  |  | 0% |  |  | Max. Mortality (adult bed bugs [1]; in vivo): 100%; Time to Max Mortality (adult bed bugs [1]; in vivo): 48 h |
| OCc1ccccc1 [Benzyl alcohol] | 24 h | 100% | 0% |  |  |  |
| O=C(OCc1ccccc1)c1ccccc1 [Benzyl benzoate] |  |  |  | 8 days | 100% |  |
| COCc1ccccc1 [Benzyl methyl ether] |  |  |  | 8 days | 60% |  |
| CCCCOc1ccccc1 [Butyl phenyl ether] |  |  |  | 6 days | 100% |  |
| CCCC(=O)c1ccccc1 [Butyrophenone] | 24 h | 100% | 0% |  |  |  |
| OC1CCCCC1 [Cyclohexanol] | 336 h | 60% | 60% |  |  |  |
| O=C1CCCCC1 [Cyclohexanone] | 240 h | 50% | 40% |  |  |  |
| O=C(c1ccccc1)C1CCCCC1 [Cyclohexyl phenyl ketone] |  |  |  | 8 days | 90% |  |
| c1ccc(COCc2ccccc2)cc1 [Dibenzyl ether] |  |  |  | 7 days | 90% |  |
| c1ccc(Oc2ccccc2)cc1 [Diphenyl ether] |  |  |  | 3 days | 100% |  |
| CCOC(C)=O [Ethyl acetate] | 336 h | 30% | 100% |  |  |  |
| CCOC(=O)c1ccccc1 [Ethyl benzoate] |  |  |  | 2 days | 100% |  |
| CCCCCC(=O)c1ccccc1 [Hexanophenone] | 140 h | 100% | 0% |  |  |  |
| CC(C)COC(=O)c1ccccc1 [Isobutyl benzoate] |  |  |  | 8 days | 90% |  |
| CC(C)C(=O)c1ccccc1 [Isobutyrophenone] | 48 h | 100% | 0% |  |  |  |
| CC(=O)C1CCCCC1 [Methylcyclohexylketone] | 264 h | 70% | 80% |  |  |  |

| Compound | Time to Max Mortality (adult bed bugs [1]; [6]) | Max. Mortality (adult bed bugs [1]; [7]) | % Eclosion (bed bug eggs [2]; [8]) | Time to Max Mortality (adult bed bugs [3]) | Max. Mortality (adult bed bugs [3]) | other results |
| --- | --- | --- | --- | --- | --- | --- |
| Oc1ccccc1 [Phenol] |  |  |  | 1 days | 100% |  |
| CCC(=O)c1ccccc1 [Propiophenone] | 24 h | 100% | 0% |  |  |  |
| CCCOC(=O)c1ccc(O)cc1 [Propyl-4-hydroxybenzoate] | 24 h | 100% | 0% |  |  |  |
| CCCCO [Solution 1-Butanol, 1-Butanol] |  |  |  |  |  | Max. Mortality (adult bed bugs [1]; in vivo): 40%; Time to Max Mortality (adult bed bugs [1]; in vivo): 190 h; % Eclosion (bed bug eggs [2]; in vivo): 100% |
| CCCCCCCCCCO [Solution 1-Decanol, 1-Decanol] |  |  | 0% |  |  | Max. Mortality (adult bed bugs [1]; in vivo): 100%; Time to Max Mortality (adult bed bugs [1]; in vivo): 264 h |
| CCCCCCO [Solution 1-Hexanol, 1-Hexanol] |  |  | 0% |  |  | Max. Mortality (adult bed bugs [1]; in vivo): 40%; Time to Max Mortality (adult bed bugs [1]; in vivo): 336 h |
| CCCCCCCCCO [Solution 1-Nonanol, 1-Nonanol] |  |  |  | 2 days | 100% |  |
| CCCCCCCCCCCCO [Solution 1-dodecanol, 1-dodecanol] |  |  |  | 14 days | 90% |  |
| CCC(C)O (stereo not shown) [Solution 2-Butanol, 2-Butanol] |  |  |  |  |  | Max. Mortality (adult bed bugs [1]; in vivo): 20%; Time to Max Mortality (adult bed bugs [1]; in vivo): 336 h; % Eclosion (bed bug eggs [2]; in vivo): 100% |
| CCCCCCC(C)O (stereo not shown) [Solution 2-Octanol, 2-Octanol] |  |  |  | 2 days | 100% |  |
| CCCCC(O)CC (stereo not shown) [Solution 3-Heptanol, 3-Heptanol] |  |  |  | 14 days | 30% |  |
| Cc1ccccc1 [Toluene] |  |  |  | 14 days | 50% |  |
| C/C=C/c1ccc(OC)cc1 [Trans-anethole] |  |  |  | 5 days | 100% |  |
| CCCCC(=O)c1ccccc1 [Valerophenone] | 24 h | 100% | 0% |  |  |  |
| CC(C)=CCC/C(C)=C/CO [geraniol] |  |  |  |  |  | prevention of egg eclosion (bed bug eggs [4]): complete prevention of egg eclosion |
| Cc1ccc(C=O)cc1 [p-Tolualdehyde] |  |  |  | 6 days | 50% |  |
| Cc1ccc(C)cc1 [p-Xylene] |  |  |  | 14 days | 30% |  |
| Neem Oil |  |  |  |  |  | Max Mortality (adult bed bugs [5]): 10% |
